Data taken from patent US6706663B2, “Herbicidal 3-heterocyclic substituted benzisothiazole and benzisoxazole compounds” (Wyeth, priority 2000, dated 2004).

Columns and labels:
[1] = system: ABUTH (Abutilon theophrasti); assay: Postemergence herbicidal evaluation; format: in vivo, Medic.
Outline: (§1)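 Seedlings grown about two weeks in flats, sprayed, then kept under standard greenhouse care. Rated visually 4–5 weeks after treatment on a 0–9 scale (stand, vigour, malformation, size, chlorosis, overall appearance) relative to untreated control; repeat tests averaged.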

[2] = system: GALAP (Galium aparine); assay: Postemergence herbicidal evaluation; format: in vivo
Outline: as §1

[3] = system: IPOHE (Ipomoea hederacea); assay: Postemergence herbicidal evaluation; format: in vivo, (L.) Jacq.
Outline: as §1

[4] = system: SETVI (Setaria viridis); assay: Postemergence herbicidal evaluation; format: in vivo, (L.) Beau
Outline: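 Seedlings grown about two weeks were sprayed with compound in 50/50 acetone/water containing 0.5% TWEEN 20, at about 0.0040 to 1.000 kg/ha via nozzle at 40 psi. Plants were kept under greenhouse conditions and visually rated on a 0-9 scale versus control four to five weeks after treatment; replicate tests averaged.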

[5] = system: GLXMAW (Soybean, Williams); assay: Postemergence herbicidal evaluation; format: in vivo, Glycine max, (L.) Merr. cv Williams
Outline: as §1

[6] = system: TRZAWR (Wheat, Winter, cv Riband); assay: Postemergence herbicidal evaluation; format: in vivo, Triticum aestivum
Outline: as §1

[7] = system: ABUTH (Abutilon theophrasti); assay: Preemergence herbicidal evaluation; format: in vivo, Medic.; conditions: preemergence, rated 4-5 weeks after treatment
[8] = system: AMBEL (Ambrosia artemisifolia); assay: Preemergence herbicidal evaluation; format: in vivo, L.; conditions: preemergence, rated 4-5 weeks after treatment
Outline: (§2)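 Visual 0–9 rating versus control (stand, vigor, malformation, size, chlorosis, overall appearance), scored four to five weeks post-treatment. Preemergence spray of aqueous acetone solution onto freshly seeded soil cups; plants grown under conventional greenhouse care.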

[9] = system: CASOB (Cassia obtusifolia); assay: Preemergence herbicidal evaluation; format: in vivo, L.; conditions: preemergence, rated 4-5 weeks after treatment
Outline: as §2

[10] = system: CHEAL (Chenopodium album); assay: Preemergence herbicidal evaluation; format: in vivo, L.; conditions: preemergence, rated 4-5 weeks after treatment
Outline: as §2

[11] = system: GALAP (Galium aparine); assay: Preemergence herbicidal evaluation; format: in vivo; conditions: preemergence, rated 4-5 weeks after treatment
Outline: as §2

[12] = system: ECHCG (Echinochloa crus-galli); assay: Preemergence herbicidal evaluation; format: in vivo, (L.) Beau; conditions: preemergence, rated 4-5 weeks after treatment
Outline: as §2

[13] = system: SETVI (Setaria viridis); assay: Preemergence herbicidal evaluation; format: in vivo, (L.) Beau; conditions: preemergence, rated 4-5 weeks after treatment
Outline: as §2

[14] = system: ZEAMX (Corn, Field); assay: Preemergence herbicidal evaluation; format: in vivo, Zea mays, L.; conditions: preemergence, rated 4-5 weeks after treatment
[15] = system: CYPSE (Cyperus serotinus); assay: Flooded paddy, preemergence weed control; format: in vivo, Rottb.; conditions: rated 3-4 weeks after treatment, 0-9 rating scale
Outline: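 Herbicidal effect was scored visually on a 0–9 scale against an untreated control 3–4 weeks after treatment. Compounds were applied preemergence as 50/50 v/v aqueous/acetone mixtures into flood water (1.5–3 cm deep over silt loam), at roughly 0.0080 to 0.1250 kg/ha active ingredient.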

[16] = system: MOOVA (Monochoria vaginalis); assay: Flooded paddy, preemergence weed control; format: in vivo, Presl.; conditions: rated 3-4 weeks after treatment, 0-9 rating scale
Outline: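 Visual 0-9 rating versus control, scoring stand, vigor, malformation, size, chlorosis and overall appearance. Silt loam soil, propagules in top 0.5 cm; flood depth 1.5–3 cm held for the whole test; greenhouse.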

[17] = system: ORYSAT (Rice, Tebonnet); assay: Flooded paddy, post-transplant rice tolerance; format: in vivo, Oryza sativa, (L.) Tebonnet; conditions: flooded paddy, post-transplant rice, rated 3-4 weeks after treatment, 0-9 rating scale
Outline: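 Visual 0-9 rating against a control, covering stand, vigor, malformation, size, chlorosis and overall appearance. Treatment was applied after transplanting paired ten-day-old seedlings into flooded silt loam, with water kept 1.5 to 3 cm deep on greenhouse benches.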

Cc1ccsc1-c1nsc2ccc(-n3c(=O)cc(C(F)(F)F)n(C)c3=O)cc12 [Compound 4, 1-methyl-3-[3-(3-methyl-2-thienyl)-1,2-benzisothiazol-5-yl]-6-(trifluoromethyl)uracil]
Postemergence herbicidal rating, ABUTH ([1]; rate 0.0320 kg/ha): 9.0
Postemergence herbicidal rating, ABUTH ([1]; rate 0.0620 kg/ha): 9.0
Postemergence herbicidal rating, ABUTH ([1]; rate 0.1250 kg/ha): 9.0
Postemergence herbicidal rating, GALAP ([2]; rate 0.0320 kg/ha): 3.3
Postemergence herbicidal rating, GALAP ([2]; rate 0.0620 kg/ha): 6.0
Postemergence herbicidal rating, GALAP ([2]; rate 0.1250 kg/ha): 8.3
Postemergence herbicidal rating, IPOHE ([3]; rate 0.0320 kg/ha): 8.6
Postemergence herbicidal rating, IPOHE ([3]; rate 0.0620 kg/ha): 9.0
Postemergence herbicidal rating, IPOHE ([3]; rate 0.1250 kg/ha): 9.0
Postemergence herbicidal rating, SETVI ([4]; rate 0.0320 kg/ha): 5.0
Postemergence herbicidal rating, SETVI ([4]; rate 0.0620 kg/ha): 6.3
Postemergence herbicidal rating, SETVI ([4]; rate 0.1250 kg/ha): 7.3
Postemergence herbicidal rating, GLXMAW ([5]; rate 0.0320 kg/ha): 6.2
Postemergence herbicidal rating, GLXMAW ([5]; rate 0.0620 kg/ha): 6.8
Postemergence herbicidal rating, GLXMAW ([5]; rate 0.1250 kg/ha): 7.3
Postemergence herbicidal rating, TRZAWR ([6]; rate 0.0320 kg/ha): 3.7
Postemergence herbicidal rating, TRZAWR ([6]; rate 0.0620 kg/ha): 4.2
Postemergence herbicidal rating, TRZAWR ([6]; rate 0.1250 kg/ha): 5.2
ABUTH preemergence herbicidal rating ([7]; Rate 0.0620 kg/ha): 7.8
ABUTH preemergence herbicidal rating ([7]; Rate 0.1250 kg/ha): 8.9
ABUTH preemergence herbicidal rating ([7]; Rate 0.2500 kg/ha): 9.0
AMBEL preemergence herbicidal rating ([8]; Rate 0.0620 kg/ha): 5.9
AMBEL preemergence herbicidal rating ([8]; Rate 0.1250 kg/ha): 7.3
AMBEL preemergence herbicidal rating ([8]; Rate 0.2500 kg/ha): 8.9
CASOB preemergence herbicidal rating ([9]; Rate 0.0620 kg/ha): 1.3
CASOB preemergence herbicidal rating ([9]; Rate 0.1250 kg/ha): 3.4
CASOB preemergence herbicidal rating ([9]; Rate 0.2500 kg/ha): 5.0
CHEAL preemergence herbicidal rating ([10]; Rate 0.0620 kg/ha): 9.0
CHEAL preemergence herbicidal rating ([10]; Rate 0.1250 kg/ha): 9.0
CHEAL preemergence herbicidal rating ([10]; Rate 0.2500 kg/ha): 8.0
GALAP preemergence herbicidal rating ([11]; Rate 0.0620 kg/ha): 5.0
GALAP preemergence herbicidal rating ([11]; Rate 0.1250 kg/ha): 8.0
GALAP preemergence herbicidal rating ([11]; Rate 0.2500 kg/ha): 9.0
ECHCG preemergence herbicidal rating ([12]; Rate 0.0620 kg/ha): 7.0
ECHCG preemergence herbicidal rating ([12]; Rate 0.1250 kg/ha): 8.3
ECHCG preemergence herbicidal rating ([12]; Rate 0.2500 kg/ha): 9.0
SETVI preemergence herbicidal rating ([13]; Rate 0.0620 kg/ha): 8.8
SETVI preemergence herbicidal rating ([13]; Rate 0.1250 kg/ha): 9.0
SETVI preemergence herbicidal rating ([13]; Rate 0.2500 kg/ha): 9.0
ZEAMX preemergence herbicidal rating ([14]; Rate 0.0620 kg/ha): 3.2
ZEAMX preemergence herbicidal rating ([14]; Rate 0.1250 kg/ha): 4.2
ZEAMX preemergence herbicidal rating ([14]; Rate 0.2500 kg/ha): 5.4
herbicidal rating, CYPSE ([15]; rate 0.0080 kg/ha): 0.0
herbicidal rating, CYPSE ([15]; rate 0.0320 kg/ha): 6.5
herbicidal rating, CYPSE ([15]; rate 0.1250 kg/ha): 9.0
herbicidal rating, MOOVA ([16]; rate 0.0080 kg/ha): 9.0
herbicidal rating, MOOVA ([16]; rate 0.0320 kg/ha): 9.0
herbicidal rating, MOOVA ([16]; rate 0.1250 kg/ha): 9.0
herbicidal rating, ORYSAT (rice tolerance) ([17]; rate 0.0080 kg/ha): 2.0
herbicidal rating, ORYSAT (rice tolerance) ([17]; rate 0.0320 kg/ha): 3.5
herbicidal rating, ORYSAT (rice tolerance) ([17]; rate 0.1250 kg/ha): 4.0

Cn1ccnc1-c1nsc2ccc(-n3c(=O)cc(C(F)(F)F)n(C)c3=O)cc12 [Compound 5, 1-methyl-3-[3-(1-methylimidazol-2-yl)-1,2-benzisothiazol-5-yl]-6-(trifluoromethyl)uracil]
Postemergence herbicidal rating, ABUTH ([1]; rate 0.0320 kg/ha): 9.0
Postemergence herbicidal rating, ABUTH ([1]; rate 0.0620 kg/ha): 9.0
Postemergence herbicidal rating, GALAP ([2]; rate 0.0320 kg/ha): 0.0
Postemergence herbicidal rating, GALAP ([2]; rate 0.0620 kg/ha): 4.0
Postemergence herbicidal rating, IPOHE ([3]; rate 0.0320 kg/ha): 9.0
Postemergence herbicidal rating, IPOHE ([3]; rate 0.0620 kg/ha): 9.0
Postemergence herbicidal rating, SETVI ([4]; rate 0.0320 kg/ha): 0.0
Postemergence herbicidal rating, SETVI ([4]; rate 0.0620 kg/ha): 1.0
Postemergence herbicidal rating, GLXMAW ([5]; rate 0.0320 kg/ha): 5.5
Postemergence herbicidal rating, GLXMAW ([5]; rate 0.0620 kg/ha): 6.0
Postemergence herbicidal rating, TRZAWR ([6]; rate 0.0320 kg/ha): 2.5
Postemergence herbicidal rating, TRZAWR ([6]; rate 0.0620 kg/ha): 3.5
ABUTH preemergence herbicidal rating ([7]; Rate 0.0620 kg/ha): 7.0
ABUTH preemergence herbicidal rating ([7]; Rate 0.1250 kg/ha): 9.0
ABUTH preemergence herbicidal rating ([7]; Rate 0.2500 kg/ha): 9.0
AMBEL preemergence herbicidal rating ([8]; Rate 0.0620 kg/ha): 8.5
AMBEL preemergence herbicidal rating ([8]; Rate 0.1250 kg/ha): 9.0
AMBEL preemergence herbicidal rating ([8]; Rate 0.2500 kg/ha): 9.0
CASOB preemergence herbicidal rating ([9]; Rate 0.0620 kg/ha): 0.0
CASOB preemergence herbicidal rating ([9]; Rate 0.1250 kg/ha): 1.0
CASOB preemergence herbicidal rating ([9]; Rate 0.2500 kg/ha): 5.5
CHEAL preemergence herbicidal rating ([10]; Rate 0.0620 kg/ha): 9.0
CHEAL preemergence herbicidal rating ([10]; Rate 0.1250 kg/ha): 9.0
CHEAL preemergence herbicidal rating ([10]; Rate 0.2500 kg/ha): 9.0
GALAP preemergence herbicidal rating ([11]; Rate 0.0620 kg/ha): 4.0
GALAP preemergence herbicidal rating ([11]; Rate 0.1250 kg/ha): 5.0
GALAP preemergence herbicidal rating ([11]; Rate 0.2500 kg/ha): 7.0
ECHCG preemergence herbicidal rating ([12]; Rate 0.0620 kg/ha): 2.5
ECHCG preemergence herbicidal rating ([12]; Rate 0.1250 kg/ha): 8.0
ECHCG preemergence herbicidal rating ([12]; Rate 0.2500 kg/ha): 9.0
SETVI preemergence herbicidal rating ([13]; Rate 0.0620 kg/ha): 9.0
SETVI preemergence herbicidal rating ([13]; Rate 0.1250 kg/ha): 9.0
SETVI preemergence herbicidal rating ([13]; Rate 0.2500 kg/ha): 9.0
ZEAMX preemergence herbicidal rating ([14]; Rate 0.0620 kg/ha): 4.0
ZEAMX preemergence herbicidal rating ([14]; Rate 0.1250 kg/ha): 6.5
ZEAMX preemergence herbicidal rating ([14]; Rate 0.2500 kg/ha): 7.0
herbicidal rating, CYPSE ([15]; rate 0.0320 kg/ha): 0.0
herbicidal rating, CYPSE ([15]; rate 0.1250 kg/ha): 0.0
herbicidal rating, MOOVA ([16]; rate 0.0320 kg/ha): 2.0
herbicidal rating, MOOVA ([16]; rate 0.1250 kg/ha): 9.0
herbicidal rating, ORYSAT (rice tolerance) ([17]; rate 0.0320 kg/ha): 2.0
herbicidal rating, ORYSAT (rice tolerance) ([17]; rate 0.1250 kg/ha): 3.0
